{"source": "patent US20140148498A1", "about": "“METHODS AND COMPOSITIONS FOR THE TREATMENT OF MARFAN SYNDROME AND ASSOCIATED DISORDERS” (THE JOHNS HOPKINS UNIVERSITY, priority 2011, published 2014)", "key": {"AT2KO:Fbn1^C1039G/+ mice": {"test_system": "AT2KO:Fbn1^C1039G/+ mice", "experiment": "Aortic root growth by echocardiography, 7 months of treatment, MFS mice lacking AT2", "format": "in vivo", "method": "A head-to-head comparison of ACEi versus ARBs was performed. Fbn1^C1039G/+ mice and WT littermates were treated with hemodynamically equivalent doses (FIG. 8) of either the ACEi enalapril (10 to 15 mg/kg of body weight per day) or the ARB losartan (40 to 60 mg/kg per day) (R. D. Patten et al., Clin. Sci 104, 109 (2003)), beginning at 8 weeks of age, and were assessed with serial echocardiograms. […] It is noteworthy that losartan reduced aortic root growth in Fbn1^C1039G/+ mice, but had no effect in WT littermates (P=0.27). […] Whether AT2 signaling is needed to achieve losartan's full therapeutic benefit was assessed. AT2KO:Fbn1^C1039G/+ mice were treated with losartan from 8 weeks of age and followed by serial echocardiography until they were killed at 9 months of age (FIG. 2C).\nAll mice were cared for under strict compliance with the Animal Care and Use Committee of the Johns Hopkins University School of Medicine. The Fbn1^C1039G/+ and AT2KO lines were maintained n a pure C57BL/6 background (backcrossed for greater than 9 generations), allowing for valid comparisons. […] Mice that were analyzed for Western Blot analysis had their proximal ascending aortas (root to right brachiocephalic trunk) immediately dissected out, flash frozen in liquid nitrogen and stored at −80d until further processing. Mice that were analyzed for aortic histology had latex injected under low pressure into the left ventricular apex until it was visible in the descending abdominal aorta. Mice that were analyzed for lung histology had their trachea intubated with a 20-gauge blunted needle, and 0.5% agar was infused under a low and constant pressure to gradually inflate the lungs. […]\nMice were started on medication at 8 weeks of age and continued for 7 months. […] Blood pressures were analyzed by taking 20 tail cuff blood pressures per day over 5 days in each mouse to habituate the mice to the tail cuff pressure system, and the blood pressures obtained on the last day were averaged. At least 4 mice for each treatment group were analyzed. […]"}, "JNK1": {"test_system": "JNK1", "experiment": "Western blot of proximal ascending aorta: JNK1 activation (Examples 4-5)", "format": "in vivo, mice", "text": "All mice were cared for under strict compliance with the Animal Care and Use Committee of the Johns Hopkins University School of Medicine. The Fbn1^C1039G/+ and AT2KO lines were maintained n a pure C57BL/6 background (backcrossed for greater than 9 generations), allowing for valid comparisons. In order to further accommodate the potential for temporal- or background-specified variation, all comparisons were made between contemporary littermates when possible. The AT21C0 mice were obtained as a generous gift from Dr. Inagami (T. Ichiki et al., Nature 377, 748 (1995)). The Agtr2 gene resides on the X chromosome and therefore we used either male mice carrying the mutated allele (who are hemizygous) or homozygous females, both of which have been previously shown to be functionally null for the AT2 receptor (T. Ichiki et al., Nature 377, 748 (1995)). Mice were sacrificed with an inhalation overdose of halothane (Sigma-Aldrich, St. Louis). Mice underwent immediate laparotomy, descending abdominal aortic transection, and PBS (pH 7.4) was infused through the right and left ventricles to flush out the blood. Mice that were analyzed for Western Blot analysis had their proximal ascending aortas (root to right brachiocephalic trunk) immediately dissected out, flash frozen in liquid nitrogen and stored at −80d until further processing. Mice that were analyzed for aortic histology had latex injected under low pressure into the left ventricular apex until it was visible in the descending abdominal aorta. Mice that were analyzed for lung histology had their trachea intubated with a 20-gauge blunted needle, and 0.5% agar was infused under a low and constant pressure to gradually inflate the lungs. […]\nMouse aortic root and ascending aortas (aortic root excluding the aortic valve to origin of right brachiocephalic trunk) were harvested, snap-frozen in liquid nitrogen and stored at −80° C. until processed. […] Equal protein loading of samples was determined by a protein assay (BioRad, CA), and confirmed by probing with antibodies against β-Actin or GAPDH (Sigma, Mo.). […]"}}, "note": "“Also recorded” adds a separate entry of the source."}
{"smiles": "CCCCc1nc(Cl)c(CO)n1Cc1ccc(-c2ccccc2-c2nn[nH]n2)cc1", "note": "[losartan]", "values": [{"measurement": "Aortic root growth over 7 months of treatment", "setting": "AT2KO:Fbn1^C1039G/+ mice; AT2KO:Fbn1^C1039G/+ mice", "value": "modest reduction in aortic root growth; also recorded: diminished effectiveness"}, {"measurement": "Final absolute aortic root diameter", "setting": "AT2KO:Fbn1^C1039G/+ mice; AT2KO:Fbn1^C1039G/+ mice, 7 months of treatment, FIG. 2C, mean +/- 2 SEM", "value": "2.06+/−0.07 mm"}, {"measurement": "Decrease in aortic root growth in treated AT2KO:Fbn1^C1039G/+ mice relative to that seen in Fbn1^C1039G/+ animals that expressed AT2", "setting": "AT2KO:Fbn1^C1039G/+ mice; losartan from 8 weeks to 9 months of age, P<0.001", "value": 40, "unit": "%"}, {"measurement": "JNK1 activation", "setting": "JNK1; Fbn1^C1039G/+ mice, FIG. 13", "value": "small reduction in JNK1 activation; also recorded: modest reduction in JNK1 activation"}, {"measurement": "JNK1 activation", "setting": "JNK1; treated AT2KO:Fbn1^C1039G/+ versus treated Fbn1^C1039G/+ mice, FIG. 14", "value": "no significant change; also recorded: no significant difference"}]}
